Results as given in patent publication US20180193412A1, “Method of In Vivo Treatment” (Hexima Limited, priority 2015, published 2018).

How the values were obtained:
T. rubrum = assay: Inhibition of growth of Trichophyton rubrum by plant defensins (microtitre A595 antifungal assay); assay type: cell-based; settings: ½ strength PDB, 30° C.
Description: (§1) The inhibitory effects of the plant defensins on the growth of Trichophyton rubrum, T. interdigitale, Microsporum fulvum and C. albicans (all obtained from the National Mycology Reference Centre, South Australia Pathology at the Women's and Children's Hospital, Adelaide, Australia) are measured essentially as described by Broekaert et al. (1990) FEMS Microbiol Lett 69:55-59.
(§2) Spores of T. rubrum, T. interdigitale and M. fulvum are isolated from sporulating fungus growing on ½ strength Sabouraud dextrose agar. Spores were removed from the plates by the addition of ½ strength potato dextrose broth (PDB). C. albicans cells are grown in Yeast Peptone Broth (YPD) for 16 h. Spore and cell concentrations are measured using a hemocytometer.
(§3) Antifungal assays are conducted in 96 well microtitre plates essentially as herein described. Wells are loaded with 20 μL of filter sterilized (0.22 Ξ m syringe filter, Millipore) defensin (10× stock for each final concentration) or water and 80 μL of 5×10^4 spores/mL (T. rubrum, T. interdigitale, M. fulvum) or 5,000 cells/mL (C. albicans) in ½ strength PDB. The plates are incubated at 30° C. Fungal growth is assayed by measuring optical density at 595 nm (A595) using a microtitre plate reader (SpectraMax Pro M2; Molecular Devices. Growth is allowed to proceed until the optical density (OD) of the fungus in the absence of any test defensin reached an OD of 0.2. Each test is performed in duplicate.

M. fulvum = assay: Inhibition of growth of Microsporum fulvum by plant defensins (microtitre A595 antifungal assay); assay type: cell-based; settings: ½ strength PDB, 30° C., A595
Description: as §1, §2, §3

T. interdigitale = assay: Inhibition of growth of T. interdigitale by plant defensins (microtitre A595 antifungal assay); assay type: cell-based, Trichophyton interdigitale; settings: ½ strength PDB, 30° C.
Description: as §1, §2, §3

T. albicans = assay: Inhibition of growth of C. albicans by plant defensins, Example 1 (microtitre A595 antifungal assay); assay type: cell-based; settings: Table 3; ½ strength PDB, 30° C., A595
Description: as §1, §2, §3

C. albicans = assay: Inhibition of growth of Candida albicans, Example 2 antifungal assay; assay type: cell-based; settings: Table 4; ½ strength PDB, 30° C., A595
Description: (§4) The inhibitory effects of the plant defensins on the growth of Candida albicans, Aspergillus fumigatus (obtained from the National Mycology Reference Centre, South Australia Pathology at the Women's and Children's Hospital, Adelaide, Australia), C. glabrata, C. tropicalis, A. flavus, A. niger, A. fumigants, Cryptococcus neoformans and C. gattii (obtained from Dee Carter, University of Sydney, New South Wales, Australia) are measured essentially as described by Broekaert et al. (1990) FEMS Microbiol Lett 69:55-59.
as §2, with “A. flavus. A. niger” for “T. rubrum, T. interdigitale”, “A. fumigatus” for “M. fulvum”, “albicans, C. glabrata, C. tropicalis, C. neoformans and C. gattii” for “albicans”
as §3, with “μm” for “Ξ m”, “(A. flavus, A. niger, A. fumigatus),” for “(T. rubrum, T. interdigitale, M. fulvum) or”, “albicans, C. glabrata, C. tropicalis) or 1×10^6 cells/mL (C. neoformans, C. gattii)” for “albicans)”

C. glabrata = assay: Inhibition of growth of C. glabrata, Example 2 antifungal assay; assay type: cell-based; settings: ½ strength PDB, 30° C., A595
Description: as §4
as §2, with “A. flavus. A. niger” for “T. rubrum, T. interdigitale”, “A. fumigatus” for “M. fulvum”, “albicans, C. glabrata, C. tropicalis, C. neoformans and C. gattii” for “albicans”
as §3, with “μm” for “Ξ m”, “(A. flavus, A. niger, A. fumigatus),” for “(T. rubrum, T. interdigitale, M. fulvum) or”, “albicans, C. glabrata, C. tropicalis) or 1×10^6 cells/mL (C. neoformans, C. gattii)” for “albicans)”

C. tropicalis = assay: Inhibition of growth of C. tropicalis, Example 2 antifungal assay; assay type: cell-based; settings: ½ strength PDB, 30° C., A595
Description: as §4
as §2, with “A. flavus. A. niger” for “T. rubrum, T. interdigitale”, “A. fumigatus” for “M. fulvum”, “albicans, C. glabrata, C. tropicalis, C. neoformans and C. gattii” for “albicans”
as §3, with “μm” for “Ξ m”, “(A. flavus, A. niger, A. fumigatus),” for “(T. rubrum, T. interdigitale, M. fulvum) or”, “albicans, C. glabrata, C. tropicalis) or 1×10^6 cells/mL (C. neoformans, C. gattii)” for “albicans)”

A. flavus = assay: Inhibition of growth of A. flavus, Example 2 antifungal assay; assay type: cell-based; settings: ½ strength PDB, 30° C., A595
Description: as §4
as §2, with “A. flavus. A. niger” for “T. rubrum, T. interdigitale”, “A. fumigatus” for “M. fulvum”, “albicans, C. glabrata, C. tropicalis, C. neoformans and C. gattii” for “albicans”
as §3, with “μm” for “Ξ m”, “(A. flavus, A. niger, A. fumigatus),” for “(T. rubrum, T. interdigitale, M. fulvum) or”, “albicans, C. glabrata, C. tropicalis) or 1×10^6 cells/mL (C. neoformans, C. gattii)” for “albicans)”

A. niger = assay: Inhibition of growth of A. niger, Example 2 antifungal assay; assay type: cell-based; settings: ½ strength PDB, 30° C., A595
Description: as §4
as §2, with “A. flavus. A. niger” for “T. rubrum, T. interdigitale”, “A. fumigatus” for “M. fulvum”, “albicans, C. glabrata, C. tropicalis, C. neoformans and C. gattii” for “albicans”
as §3, with “μm” for “Ξ m”, “(A. flavus, A. niger, A. fumigatus),” for “(T. rubrum, T. interdigitale, M. fulvum) or”, “albicans, C. glabrata, C. tropicalis) or 1×10^6 cells/mL (C. neoformans, C. gattii)” for “albicans)”

A. fumigatus = assay: Inhibition of growth of Aspergillus fumigatus, Example 2 antifungal assay; assay type: cell-based; settings: ½ strength PDB, 30° C., A595
Description: as §4
as §2, with “A. flavus. A. niger” for “T. rubrum, T. interdigitale”, “A. fumigatus” for “M. fulvum”, “albicans, C. glabrata, C. tropicalis, C. neoformans and C. gattii” for “albicans”
as §3, with “μm” for “Ξ m”, “(A. flavus, A. niger, A. fumigatus),” for “(T. rubrum, T. interdigitale, M. fulvum) or”, “albicans, C. glabrata, C. tropicalis) or 1×10^6 cells/mL (C. neoformans, C. gattii)” for “albicans)”

C. neoformans = assay: Inhibition of growth of Cryptococcus neoformans, Example 2 antifungal assay; assay type: cell-based; settings: ½ strength PDB, 30° C., A595
Description: as §4
as §2, with “A. flavus. A. niger” for “T. rubrum, T. interdigitale”, “A. fumigatus” for “M. fulvum”, “albicans, C. glabrata, C. tropicalis, C. neoformans and C. gattii” for “albicans”
as §3, with “μm” for “Ξ m”, “(A. flavus, A. niger, A. fumigatus),” for “(T. rubrum, T. interdigitale, M. fulvum) or”, “albicans, C. glabrata, C. tropicalis) or 1×10^6 cells/mL (C. neoformans, C. gattii)” for “albicans)”

C. gattii = assay: Inhibition of growth of C. gattii, Example 2 antifungal assay; assay type: cell-based; settings: ½ strength PDB, 30° C., A595
Description: as §4
as §2, with “A. flavus. A. niger” for “T. rubrum, T. interdigitale”, “A. fumigatus” for “M. fulvum”, “albicans, C. glabrata, C. tropicalis, C. neoformans and C. gattii” for “albicans”
as §3, with “μm” for “Ξ m”, “(A. flavus, A. niger, A. fumigatus),” for “(T. rubrum, T. interdigitale, M. fulvum) or”, “albicans, C. glabrata, C. tropicalis) or 1×10^6 cells/mL (C. neoformans, C. gattii)” for “albicans)”

[1] = system: Trichophyton rubrum, T. interdigitale, Microsporum fulvum and C. albicans; assay: Inhibition assays of Example 1, summary across the range of fungal pathogens; assay type: cell-based; settings: summary of Table 3, at the concentrations tested
Description: as §1, §2, §3

E. coli = assay type: cell-based, Escherichia coli; settings: for IC50: Mueller-Hinton Broth, 37° C., 18 hours, up to 20 μM, read-out: IC50 against E. coli
Description: (§5) A single E. coli or B. subtilis colony was used to inoculate 5 ml of Luria-Bertani media and grown overnight at 37° C. The following day, the optical density of the culture was measured and the bacteria diluted to an optical density at 600 nm (OD600) of 0.01 in Mueller-Hinton Broth. Diluted E. coli or B. subtilis were added to 96-well plates with defensins at concentrations of 20 μM, 10 μM, 5 μM, 2.5 μM, 1.25 μM, 0.625 μM or 0.3125 μM. Plates were read at OD595 to obtain time zero data points. Plates were incubated at 37° C. for 18 hours before reading again at OD595 to assess the amount of bacterial growth.

B. subtilis = assay: Inhibition of the growth of Bacillus subtilis (OD595, 18 hours); assay type: cell-based; settings: for IC50: Mueller-Hinton Broth, 37° C., 18 hours, up to 20 μM, read-out: IC50 against B. subtilis
Description: as §5

[2] = at the concentrations tested (0.3125-20 μM)

Row | Substance | IC50 against T. rubrum (T. rubrum) [µg/mL] | IC50 against M. fulvum (M. fulvum) [µg/mL] | IC50 against T. interdigitale (T. interdigitale) [µg/mL] | IC50 against T. albicans (T. albicans) [µg/mL] | IC50 against C. albicans (C. albicans) [µg/mL] | IC50 against C. glabrata (C. glabrata) [µg/mL] | IC50 against C. tropicalis (C. tropicalis) [µg/mL] | IC50 against A. flavus (A. flavus) [µg/mL] | IC50 against A. niger (A. niger) [µg/mL] | IC50 against A. fumigatus (A. fumigatus) [µg/mL] | IC50 against C. neoformans (C. neoformans) [µg/mL] | IC50 against C. gattii (C. gattii) [µg/mL] | Activity across the range of fungal pathogens [1] | IC50 (E. coli) [µM] | IC50 (B. subtilis) [µM] | Inhibition of growth of E. coli (E. coli; [2]) | Inhibition of growth of B. subtilis (B. subtilis; [2])
1 | HXL035: Class I plant defensin from Picramnia pentandra (KVCTKPSKFFKGLCGFDRDCTVACKKEGLASGFCQNKGFFNVVCVCRKPC; HXL035 Picramnia pentandra) | 2 | 2 | 1 | 18 | 18 | 10 | 6 | 25 | 6 | 7.5 | 5 | 20 | most effective | – | – | – | –
2 | HXL004: Class I plant defensin from Nicotiana benthamiana (RTCESQSHRFKGLCFSRSNCASVCHTEGFNGGHCRGFRRRCFCTRHC; HXL004 Nicotiana benthamiana) | 27.5 | 12 | 19 | 20 | 20 | 20 | 5 | >100 | 45 | 20 | 7 | 20 | intermediate activity | 2.5 | 2.6 | – | –
3 | HXL012: Class I plant defensin from Amaranthus retroflexus (RMCKAPSKLFRGMCGIRDSNCDSVCRAEGMAAGDCHGLRRRCICSRPC; HXL012 Amaranthus retroflexus) | 2 | 18 | 2 | 42 | 42 | >100 | 10 | 45 | 12.5 | 15 | 8 | 38 | intermediate activity | > 20 | 20 | – | –
4 | HXL005: Class I plant defensin from Taraxcum kok-saghyz (KMCQTTSHAFSCVNDSGCSGSCEKQGFASGKCDGVRRRCTCYKKC; HXL005 Taraxcum kok-saghyz) | 3 | 5 | 3.5 | 22 | 22 | 11 | 12 | 25 | 7.5 | 11 | 5 | 14 | most effective | > 20 | > 20 | did not inhibit the growth | did not inhibit the growth
